According to patent US11331299B2, “Medicinal use of serrulatane diterpenes” (The University of Sydney, priority 2016, dated 2022):
Like-named read-outs stand apart in the source and are kept apart here.

Test system: 280 human cancer cell lines
Experiment: OncoPanel cell proliferation assay (10-day)
Assay type: cell-based
Conditions: for EC50: read-out: Cell Count EC50; for IC50: read-out: Cell Count IC50
[1] = Homo sapiens, 22Rv1, 22Rv1, Prostate
[2] = Homo sapiens, 786-0, 786-O, Kidney
[3] = Homo sapiens, A7, Skin (Melanoma)
[4] = Homo sapiens, A 172, A172, CNS - Glioma
[5] = Homo sapiens, A253, A-253, Head and Neck
[6] = Homo sapiens, A388, Head and Neck
[7] = Homo sapiens, A498, A498, Kidney
[8] = Homo sapiens, A549, A549, Lung - NSCLC
[9] = Homo sapiens, A673, A-673, Soft Tissue - Sarcoma
[10] = Homo sapiens, A704, A-704, Kidney
[11] = Homo sapiens, A-375, A375, Skin (Melanoma)
[12] = Homo sapiens, A-427, A427, Lung - NSCLC
[13] = Homo sapiens, A-431, A431, Head and Neck
[14] = Homo sapiens, AN3-CA, AN3 CA, Female GU - Uterus
[15] = Homo sapiens, ARH-77, ARH-77, Myeloma
[16] = Homo sapiens, ASPC1, AsPC-1, Pancreas
[17] = Homo sapiens, AU565, AU565, Breast
[18] = Homo sapiens, BCP-1, BCP-1, Lymphoma
[19] = Homo sapiens, BE(2)-C, BE(2)C, CNS - Neuroblastoma
[20] = Homo sapiens, BFTC-905, BFTC-905, Bladder
[21] = Homo sapiens, BHT-101, BHT-101, Endocrine - Thyroid
[22] = Homo sapiens, BM-1604, BM-1604, Prostate
[23] = Homo sapiens, BPH-1, BPH1, Prostate
[24] = Homo sapiens, BT-20, BT20, Breast

## CC(C)=CCC[C@H](CO)[C@@H]1CC[C@@H](C)c2c1cc(C)c(O)c2O [Compound 1, 7,8,18-trihydroxyserrulat-14-ene]
GI50 range 0.03-0.099 μM, of 280 cell types
  Number of cell types, GI Activity Potent: 0
GI50 range 0.1-0.99 μM, of 280 cell types
  Number of cell types, GI Activity moderately potent: 23
GI50 range 1-2.99 μM, of 280 cell types
  Number of cell types, GI Activity Strong: 149
GI50 range 3-9.99 μM, of 280 cell types
  Number of cell types, GI Activity moderately strong: 99
GI50 range 10-30.00 μM, of 280 cell types
  Number of cell types, GI Activity weak: 6
GI50 range >30 μM, of 280 cell types
  Number of cell types, GI Activity very weak: 1
[1]
  EC50: 4.08 µM
  IC50: 4.08 µM
Homo sapiens, 22Rv1, 22Rv1, Prostate, read-out: Cell Count GI50
  GI50: 4.06 µM
Homo sapiens, 149 cell lines with strong activity, read-out: GI50
  GI50: 1 to 2.98 µM
Homo sapiens, 174 cell lines with very potent to strong activity, read-out: GI50
  GI50: 0.006 to 2.98 µM
Homo sapiens, 647-V, Bladder
  EC50: 3.12 µM
  IC50: 3.12 µM
Homo sapiens, 647-V, Bladder, read-out: Cell Count GI50
  GI50: 3.11 µM
Homo sapiens, 769-P, Kidney
  EC50: 0.85 µM
  IC50: 0.85 µM
Homo sapiens, 769-P, Kidney, read-out: Cell Count GI50
  GI50: 0.85 µM
[2]
  EC50: 2.05 µM
  IC50: 2.05 µM
Homo sapiens, 786-0, 786-O, Kidney, read-out: Cell Count GI50
  GI50: 2.05 µM
Homo sapiens, 5637, Bladder
  EC50: 3.38 µM
  IC50: 3.38 µM
Homo sapiens, 5637, Bladder, read-out: Cell Count GI50
  GI50: 3.32 µM
[3]
  EC50: 0.94 µM
  IC50: 0.94 µM
Homo sapiens, A7, Skin (Melanoma), read-out: Cell Count GI50
  GI50: 0.94 µM
Homo sapiens, A101D
  EC50: 8.42 µM
  IC50: 8.42 µM
Homo sapiens, A101D, read-out: Cell Count GI50
  GI50: 8.25 µM
[4]
  EC50: 1.12 µM
  IC50: 1.15 µM
Homo sapiens, A 172, A172, CNS - Glioma, read-out: Cell Count GI50
  GI50: 1.14 µM
[5]
  EC50: 4.13 µM
  IC50: 4.14 µM
Homo sapiens, A253, A-253, Head and Neck, read-out: Cell Count GI50
  GI50: 4.13 µM
[6]
  EC50: 1.66 µM
  IC50: 1.67 µM
Homo sapiens, A388, Head and Neck, read-out: Cell Count GI50
  GI50: 1.66 µM
[7]
  EC50: 1.29 µM
  IC50: 1.29 µM
Homo sapiens, A498, A498, Kidney, read-out: Cell Count GI50
  GI50: 1.29 µM
[8]
  EC50: 1.66 µM
  IC50: 1.67 µM
Homo sapiens, A549, A549, Lung - NSCLC, read-out: Cell Count GI50
  GI50: 1.66 µM
[9]
  EC50: 1.54 µM
  IC50: 1.55 µM
Homo sapiens, A673, A-673, Soft Tissue - Sarcoma, read-out: Cell Count GI50
  GI50: 1.54 µM
[10]
  EC50: 1.57 µM
  IC50: 1.6 µM
Homo sapiens, A704, A-704, Kidney, read-out: Cell Count GI50
  GI50: 1.54 µM
[11]
  EC50: 1.05 µM
  IC50: 1.05 µM
Homo sapiens, A-375, A375, Skin (Melanoma), read-out: Cell Count GI50
  GI50: 1.05 µM
[12]
  EC50: 4.52 µM
  IC50: 4.52 µM
Homo sapiens, A-427, A427, Lung - NSCLC, read-out: Cell Count GI50
  GI50: 4.5 µM
[13]
  EC50: 2.8 µM
  IC50: 2.81 µM
Homo sapiens, A-431, A431, Head and Neck, read-out: Cell Count GI50
  GI50: 2.8 µM
Homo sapiens, ACHN, Kidney
  EC50: 1.74 µM
  IC50: 1.74 µM
Homo sapiens, ACHN, Kidney, read-out: Cell Count GI50
  GI50: 1.74 µM
Homo sapiens, AGS, Stomach
  EC50: 0.7 µM
  IC50: 0.7 µM
Homo sapiens, AGS, Stomach, read-out: Cell Count GI50
  GI50: 0.7 µM
[14]
  EC50: 1.52 µM
  IC50: 1.52 µM
Homo sapiens, AN3-CA, AN3 CA, Female GU - Uterus, read-out: Cell Count GI50
  GI50: 1.49 µM
[15]
  EC50: 1.95 µM
  IC50: 1.97 µM
Homo sapiens, ARH-77, ARH-77, Myeloma, read-out: Cell Count GI50
  GI50: 1.95 µM
[16]
  EC50: 2.87 µM
  IC50: 2.87 µM
Homo sapiens, ASPC1, AsPC-1, Pancreas, read-out: Cell Count GI50
  GI50: 2.84 µM
[17]
  EC50: 1.62 µM
  IC50: 1.62 µM
Homo sapiens, AU565, AU565, Breast, read-out: Cell Count GI50
  GI50: 1.61 µM
Homo sapiens, BC-1, Lymphoma
  EC50: 1.52 µM
  IC50: 1.52 µM
Homo sapiens, BC-1, Lymphoma, read-out: Cell Count GI50
  GI50: 1.51 µM
[18]
  EC50: 3.18 µM
  IC50: 3.18 µM
Homo sapiens, BCP-1, BCP-1, Lymphoma, read-out: Cell Count GI50
  GI50: 3.14 µM
[19]
  EC50: 4.23 µM
  IC50: 4.23 µM
Homo sapiens, BE(2)-C, BE(2)C, CNS - Neuroblastoma, read-out: Cell Count GI50
  GI50: 4.18 µM
[20]
  EC50: 1.79 µM
  IC50: 1.79 µM
Homo sapiens, BFTC-905, BFTC-905, Bladder, read-out: Cell Count GI50
  GI50: 1.78 µM
[21]
  EC50: 2.16 µM
  IC50: 2.17 µM
Homo sapiens, BHT-101, BHT-101, Endocrine - Thyroid, read-out: Cell Count GI50
  GI50: 2.17 µM
[22]
  EC50: 2.58 µM
  IC50: 2.58 µM
Homo sapiens, BM-1604, BM-1604, Prostate, read-out: Cell Count GI50
  GI50: 2.56 µM
[23]
  EC50: 5.24 µM
  IC50: 5.24 µM
Homo sapiens, BPH-1, BPH1, Prostate, read-out: Cell Count GI50
  GI50: 5.2 µM
[24]
  EC50: 1.59 µM
  IC50: 1.61 µM
Homo sapiens, BT-20, BT20, Breast, read-out: Cell Count GI50
  GI50: 1.53 µM
